This passage reports IC50 and MTAP intact/deleted ratio results from patent US11999727B2 (Tango Therapeutics, Inc., priority 2020, dated 2024).

The target in experiment [1] is T1, PRMT5 (Homo sapiens, UniProt O14744).
T1 construct: purchased Viva (custom protein)
The experiment is described as follows: PRMT5 biochemical IC50 assay with MTA as cofactor. The following applies: PRMT5, MTA as cofactor; read-out: MTA IC50.

For experiment [2], the system named is HAP1 MTAP-deleted cell line. The experiment is described as follows: Viability assay, MTAP-deleted cell line. The format is cell-based. The following applies: Homo sapiens, HAP1, viability assay, MTAP-deleted cell line; read-out: HAP1 MTAP deleted viability. The source says: Table 1 additionally indicates IC50 values in a viability assay for the MTAP-deleted cell line (column 10), indicating the effect of treatment with compound on cell survival.

The target of experiment [3] is T1, PRMT5. Nature of the experiment: PRMT5 biochemical IC50 assay with no cofactor. The following applies: PRMT5, no cofactor; read-out: No Cofactor/rel IC50. The text has this: Table 1 indicates IC50 values (μM) against PRMT5 for exemplary compounds in the presence of SAM as cofactor, with no cofactor, and with MTA as cofactor, respectively (columns 4-6). […] Ki values can be calculated from the IC50 values as described in the Examples section. As detailed in the Examples section, for the assay performed in the presence of SAM, IC50=Ki×1.5 (Ki=IC50/1.5).

In experiment [4] the target is T1, PRMT5. The experiment is described as follows: PRMT5 biochemical IC50 assay with SAM as cofactor. The following applies: PRMT5, SAM as cofactor; read-out: SAM IC50.
Experiment [5] has as its system HAP1 MTAP-deleted cell line. The experiment is described as follows: SDMA in-cell western assay, HAP1 MTAP-deleted. Particulars: for MTAP intact/deleted ratio: IC50 ratio HAP1 MTAP-intact / HAP1 MTAP-deleted; for IC50: HAP1 MTAP-deleted, read-out: HAP1 MTAP deleted IC50. The format is cell-based. In outline: (§1)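 MTAP-null vs endogenous-MTAP HAP1 isogenic cells; in-cell western SDMA readout; IC50 per line.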

For experiment [6], the system named is HAP1 MTAP-intact cell line. Nature of the experiment: SDMA in-cell western assay, HAP1 MTAP-intact. The format is cell-based. Particulars: HAP1 MTAP-intact, read-out: MTAP HAP1 intact IC50. In outline:
as §1

[7] abbreviates: Homo sapiens, HAP1, SDMA in-cell western.

Read-outs that look alike come from different tables or passages of the source.

T1 sequence (O14744 whole entry): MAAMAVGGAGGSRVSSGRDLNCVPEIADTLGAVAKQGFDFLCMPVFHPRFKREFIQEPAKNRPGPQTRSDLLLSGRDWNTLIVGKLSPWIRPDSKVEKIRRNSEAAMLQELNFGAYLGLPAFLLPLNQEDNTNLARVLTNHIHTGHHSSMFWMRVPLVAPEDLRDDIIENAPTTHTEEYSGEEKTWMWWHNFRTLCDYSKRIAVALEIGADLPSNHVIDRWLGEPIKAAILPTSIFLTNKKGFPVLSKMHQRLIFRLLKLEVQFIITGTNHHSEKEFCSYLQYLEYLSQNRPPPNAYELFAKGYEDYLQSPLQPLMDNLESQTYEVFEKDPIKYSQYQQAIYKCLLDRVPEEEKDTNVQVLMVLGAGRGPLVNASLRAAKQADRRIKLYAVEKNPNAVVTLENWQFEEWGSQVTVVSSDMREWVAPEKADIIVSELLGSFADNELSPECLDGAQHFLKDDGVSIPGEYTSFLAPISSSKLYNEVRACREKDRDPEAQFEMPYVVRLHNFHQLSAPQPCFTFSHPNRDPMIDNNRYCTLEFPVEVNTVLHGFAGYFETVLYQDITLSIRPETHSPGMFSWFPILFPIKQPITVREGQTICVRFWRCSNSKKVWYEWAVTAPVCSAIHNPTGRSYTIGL
T1 sequence (Q9BQA1 whole entry partner): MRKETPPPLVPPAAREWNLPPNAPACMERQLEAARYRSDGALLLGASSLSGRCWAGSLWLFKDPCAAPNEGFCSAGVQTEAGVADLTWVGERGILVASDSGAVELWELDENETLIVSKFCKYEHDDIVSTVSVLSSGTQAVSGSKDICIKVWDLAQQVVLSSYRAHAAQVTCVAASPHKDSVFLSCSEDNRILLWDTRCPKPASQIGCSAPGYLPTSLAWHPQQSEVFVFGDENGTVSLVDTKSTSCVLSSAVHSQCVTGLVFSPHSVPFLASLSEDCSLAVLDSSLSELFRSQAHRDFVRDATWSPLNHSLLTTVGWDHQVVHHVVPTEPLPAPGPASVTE

As to `COc1ncc(NC(=O)C(=O)N2CCCCC2C2CCCCC2)cc1C(N)=O` (single isomer, unassigned) [Compound 347, 5-(2-(2-cyclohexylpiperidin-1-yl)-2-oxoacetamido)-2-methoxynicotinamide], the IC50 at PRMT5 [1] is below 50 nM; in experiment [2], 1000 to 10000 nM; at PRMT5 [3] it was 50 to 500 nM; at PRMT5 [4] it was 50 to 500 nM; in experiment [5] (SDMA in-cell western) it was 100 to 1000 nM; in experiment [6] (SDMA in-cell western), above 1000 nM. The MTAP intact/deleted ratio entry in experiment [5] (SDMA in-cell western) is reported as “A (an IC50 ratio greater than or equal to 10 fold)”.
`CNc1cccc([C@@H]2CC[C@@H](C)CN2C(=O)C(=O)Nc2cncc(C(N)=O)c2)c1` (single isomer, unassigned) [Compound 348]: the IC50 at PRMT5 [1] was below 50 nM; in experiment [2], 1000 to 10000 nM; on PRMT5 [3], 50 to 500 nM; on PRMT5 [4] it was 50 to 500 nM; in experiment [5] (setting [7]), below 100 nM; in experiment [6] (setting [7]) it was above 1000 nM. Besides, the MTAP intact/deleted ratio result in experiment [5] (SDMA in-cell western) was “A (an IC50 ratio greater than or equal to 10 fold)”.
With `C[C@H]1CC[C@H](c2ccc(O)nc2)N(C(=O)C(=O)Nc2cncc(C(N)=O)c2)C1` (single isomer, unassigned) [Compound 350], the IC50 was below 50 nM on PRMT5 [1]; above 10000 nM in experiment [2]; 50 to 500 nM at PRMT5 [3]; 50 to 500 nM on PRMT5 [4]; above 1000 nM in experiment [5] (setting [7]); above 1000 nM in experiment [6] (setting [7]). For the same compound, the MTAP intact/deleted ratio entry in experiment [5] (SDMA in-cell western) is “C (an IC50 ratio of less than 3 fold)”.
On to `C[C@@H]1CC[C@@H](c2ccc(O)nc2)N(C(=O)C(=O)Nc2cncc(C(N)=O)c2)C1` (single isomer, unassigned) [Compound 351], for which the IC50 on PRMT5 [1] was above 500 nM; in experiment [2], above 10000 nM; at PRMT5 [3], above 500 nM; at PRMT5 [4], above 500 nM; in experiment [5] (setting [7]), above 1000 nM; in experiment [6] (setting [7]), above 1000 nM. Moreover, in experiment [5] (SDMA in-cell western), the MTAP intact/deleted ratio result was “C (an IC50 ratio of less than 3 fold)”.
Consider `N#C[C@H]1CCN(C(=O)C(=O)Nc2cncc(C(N)=O)c2)[C@@H](c2ccccc2)C1` (single isomer, unassigned) [Compound 352], for which the IC50 is below 50 nM at PRMT5 [1]; above 10000 nM in experiment [2]; 50 to 500 nM at PRMT5 [3]; 50 to 500 nM at PRMT5 [4]; 100 to 1000 nM in experiment [5] (setting [7]); above 1000 nM in experiment [6] (setting [7]). Besides, the MTAP intact/deleted ratio result in experiment [5] (SDMA in-cell western) is “A (an IC50 ratio greater than or equal to 10 fold)”.
On to `N#C[C@@H]1CCN(C(=O)C(=O)Nc2cncc(C(N)=O)c2)[C@H](c2ccccc2)C1` (single isomer, unassigned) [Compound 353], for which the IC50 was above 500 nM on PRMT5 [1]; above 10000 nM in experiment [2]; above 500 nM at PRMT5 [3]; above 500 nM at PRMT5 [4]; above 1000 nM in experiment [5] (setting [7]); above 1000 nM in experiment [6] (setting [7]). Further, the MTAP intact/deleted ratio result in experiment [5] (SDMA in-cell western) is “C (an IC50 ratio of less than 3 fold)”.
For the compound `C[C@H]1CC[C@H](c2ccc(O)c(F)c2)N(C(=O)C(=O)Nc2cncc(C(N)=O)c2)C1` (single isomer, unassigned) [Compound 354], the IC50 on PRMT5 [1] was below 50 nM; in experiment [2], below 1000 nM; at PRMT5 [3] it was below 50 nM; at PRMT5 [4] it was 50 to 500 nM; in experiment [5] (setting [7]), below 100 nM; in experiment [6] (setting [7]) it was 100 to 1000 nM. In experiment [5] (SDMA in-cell western), the MTAP intact/deleted ratio result is recorded as “A (an IC50 ratio greater than or equal to 10 fold)”.
For the compound `C[C@@H]1CC[C@@H](c2ccc(O)c(F)c2)N(C(=O)C(=O)Nc2cncc(C(N)=O)c2)C1` (single isomer, unassigned) [Compound 355], the IC50 on PRMT5 [1] was above 500 nM; in experiment [2], above 10000 nM; at PRMT5 [3], above 500 nM; on PRMT5 [4], above 500 nM; in experiment [5] (setting [7]) it was above 1000 nM; in experiment [6] (setting [7]) it was above 1000 nM. Moreover, the MTAP intact/deleted ratio result in experiment [5] (SDMA in-cell western) is listed as “C (an IC50 ratio of less than 3 fold)”.
As to `CNc1cccc([C@H]2CCCCN2C(=O)C(=O)Nc2cnc(N)c(C)c2)c1` (single isomer, unassigned) [Compound 356], the IC50 at PRMT5 [1] is below 50 nM; in experiment [2], 1000 to 10000 nM; at PRMT5 [3], 50 to 500 nM; on PRMT5 [4] it was 50 to 500 nM; in experiment [5] (setting [7]) it was below 100 nM; in experiment [6] (setting [7]) it was above 1000 nM. In experiment [5] (SDMA in-cell western), the MTAP intact/deleted ratio result is given as “A (an IC50 ratio greater than or equal to 10 fold)”.
On to `CNc1cccc([C@@H]2CCCCN2C(=O)C(=O)Nc2cnc(N)c(C)c2)c1` (single isomer, unassigned) [Compound 357], for which the IC50 at PRMT5 [1] was 50 to 500 nM; in experiment [2], above 10000 nM; on PRMT5 [3], above 500 nM; on PRMT5 [4] it was 50 to 500 nM; in experiment [5] (setting [7]) it was 100 to 1000 nM; in experiment [6] (setting [7]), above 1000 nM. Besides, the MTAP intact/deleted ratio result in experiment [5] (SDMA in-cell western) is reported as “A (an IC50 ratio greater than or equal to 10 fold)”.
Consider `CN(C)c1cccc([C@@H]2CCCCN2C(=O)C(=O)Nc2cncc(C(N)=O)c2)c1` (single isomer, unassigned) [Compound 365], for which the IC50 is below 50 nM on PRMT5 [1]; 1000 to 10000 nM in experiment [2]; 50 to 500 nM on PRMT5 [3]; 50 to 500 nM on PRMT5 [4]; below 100 nM in experiment [5] (setting [7]); above 1000 nM in experiment [6] (setting [7]). Also, the MTAP intact/deleted ratio result in experiment [5] (SDMA in-cell western) was “A (an IC50 ratio greater than or equal to 10 fold)”.
As to `CN(C)c1cccc([C@H]2CCCCN2C(=O)C(=O)Nc2cncc(C(N)=O)c2)c1` (single isomer, unassigned) [Compound 366], the IC50 was 50 to 500 nM at PRMT5 [1]; above 10000 nM in experiment [2]; above 500 nM at PRMT5 [3]; above 500 nM at PRMT5 [4]; above 1000 nM in experiment [5] (setting [7]); above 1000 nM in experiment [6] (setting [7]). In experiment [5] (SDMA in-cell western), the MTAP intact/deleted ratio entry was “C (an IC50 ratio of less than 3 fold)”.
Consider `Cc1c(NC(=O)C(=O)N2C[C@H](C)CC[C@H]2c2ccccc2)cnc(N)c1C` (single isomer, unassigned) [Compound 367], for which the IC50 on PRMT5 [1] was 50 to 500 nM; in experiment [2] it was above 10000 nM; on PRMT5 [3] it was above 500 nM; on PRMT5 [4], above 500 nM; in experiment [5] (setting [7]), above 1000 nM; in experiment [6] (setting [7]) it was above 1000 nM. Moreover, the MTAP intact/deleted ratio entry in experiment [5] (SDMA in-cell western) was “C (an IC50 ratio of less than 3 fold)”.
As for `Cc1c(NC(=O)C(=O)N2C[C@@H](C)CC[C@@H]2c2ccccc2)cnc(N)c1C` (single isomer, unassigned) [Compound 368], the IC50 was below 50 nM on PRMT5 [1]; 1000 to 10000 nM in experiment [2]; 50 to 500 nM at PRMT5 [3]; 50 to 500 nM at PRMT5 [4]; below 100 nM in experiment [5] (setting [7]); above 1000 nM in experiment [6] (setting [7]). Moreover, the MTAP intact/deleted ratio entry in experiment [5] (SDMA in-cell western) is “A (an IC50 ratio greater than or equal to 10 fold)”.
As for `COc1ncc(NC(=O)C(=O)N2C[C@@H](C)CC[C@@H]2C2CCCCC2)cc1C(N)=O` (single isomer, unassigned) [Compound 369], the IC50 is below 50 nM at PRMT5 [1]; 1000 to 10000 nM in experiment [2]; 50 to 500 nM at PRMT5 [3]; 50 to 500 nM on PRMT5 [4]; 100 to 1000 nM in experiment [5] (setting [7]); above 1000 nM in experiment [6] (setting [7]). Also, in experiment [5] (SDMA in-cell western), the MTAP intact/deleted ratio entry was “A (an IC50 ratio greater than or equal to 10 fold)”.
